How the values were obtained:
[1] = in vivo; cited from earlier work
[2] = test system: LS174T intrahepatic micro-metastases; type: in vivo
[3] = 0.03 mmolGd/kg DAB-Am64-(1B4M-Gd)64 or 0.1 mmolGd/kg dimeglumine-DTPA-Gd, dynamic MRI 0-25 min

SMILES | excreted via the liver [1] | MRI signal intensity for blood vessels (portal and hepatic veins) [2, 3] | MRI signal intensity in the tumors [2, 3] | MRI signal intensity in the liver ([2]; 0.03 mmolGd/kg DAB-Am64-(1B4M-Gd)64 or 0.1 mmolGd/kg dimeglumine-DTPA-Gd, dynamic MRI 0-25 min, comparator worded relative to DAB agent) | liver-to-tumor image intensity ratio ([2]; 0.1 mmolGd/kg dimeglumine-DTPA-Gd versus 0.03 mmolGd/kg DAB-Am64-(1B4M-Gd)64, all time points) | tumors with more than 2 mm diameter detected by MRI (of 18) ([2]; same mice, n=5, 1-day interval, 0.03 mmolGd/kg DAB agent, 0.1 mmolGd/kg dimeglumine-DTPA-Gd)
CCOc1ccc(CC(CN(CCN(CC(=O)[O-])CC(=O)[O-])CC(=O)[O-])N(CC(=O)[O-])CC(=O)[O-])cc1.[Gd+3].[Na+].[Na+] (stereo not shown) [Eovist, [Gd(EOB-DTPA)(H2O)]^2−] | roughly 50% |  |  |  |  | 
CNC[C@H](O)[C@@H](O)[C@H](O)[C@H](O)CO.CNC[C@H](O)[C@@H](O)[C@H](O)[C@H](O)CO.O=C([O-])CN(CCN(CC(=O)[O-])CC(=O)O)CCN(CC(=O)O)C(COCc1ccccc1)C(=O)[O-].[Gd+3] (stereo not shown) [MultiHance, [Gd(BOPTA)(H2O)]^2−] | 2-4% |  |  |  |  | 
CNC[C@H](O)[C@@H](O)[C@H](O)[C@H](O)CO.CNC[C@H](O)[C@@H](O)[C@H](O)[C@H](O)CO.O=C([O-])CN(CCN(CC(=O)[O-])CC(=O)O)CCN(CC(=O)[O-])CC(=O)O.[Gd+3] [dimeglumine-DTPA-Gd] |  | much lower | comparable | much lower | significantly less | 18
